Laboratory results from patent US20210395698A1, “METHODS AND COMPOSITIONS FOR CULTIVATING PLURIPOTENT CELL SUSPENSIONS” (Life Technologies Corporation, priority 2020, published 2021).
Entries after “also recorded” stand apart in the source; their conditions may differ.

Legend:
[1] = system: Gibco Human Episomal iPSCs and WA09 ESCs; test: DOE of small molecules on PSC expansion in suspension culture (viable cell counts Day 5); type: cell-based; conditions: for fold-expansion of PSCs: added to base PSC medium+1× RevitaCell, 24 well, 120 RPM, viable cell counts Day 5
Experimental: Design of Experiment (DOE) was conducted using Gibco Human Episomal induced pluripotent stem cells (iPSCs) and WA09 embryonic stem cells (ESCs) to determine the impact of the small molecules. These PSCs were seeded in base PSC medium+1× RevitaCell™ Supplement and grown in a 24 well non-tissue culture treated plate at 120 RPM on an orbital shaker platform and cell expansion was assessed via viable cell counts on Day 5. […] FIG. 1 depicts results from the assessment of various concentrations of an anti-clumping agent and individual small molecules CHIR99021, PD0325901, SP00125, BIRD796, and Go6983on the expansion of iPSCs and WA09 hESCs.

[2] = system: Gibco Human Episomal iPSCs and WA09 ESCs; test: Expansion and spheroid morphology with small molecules added continuously vs Day 1 only; type: cell-based
Experimental: Cell morphology was assessed following exposure to formulations containing 3 μM CHIR99021 in continuous culture media vs exposure at day 1 only. iPSCs were grown in a 24 well non-tissue culture treated plate at 120 RPM on an orbital shaker platform and cell morphology was assessed on Day 5. In this experiment, the small molecules were added on Day 1 only or throughout the culture period. […] Cell expansion and morphology were assessed for PSC suspension cultures following incubation with the base PSC media formulation containing CHIR99021 alone or in combination with one or more of the other small molecules and/or anti-clumping agent. PSCs were grown in a 24 well non-tissue culture treated plate at 120 RPM on an orbital shaker platform and cell morphology was examined and cell expansion was assessed via viable cell counts on Day 5. In this experiment, the small molecules were either added on Day 1 only or throughout the culture period. In these figures, the x-axis indicates various formulations tested and the y-axis indicates the fold-change in viable cell counts from day 1 to day 5 of culture. Micrographs of the cell cultures at day 5 under certain conditions are also shown. […] It was surprising that the increase in fold-change could be accomplished through inclusion of CHIR99021 at the time of passage only (e.g., Day 1 only).

iPSCs = test: DOE on balance of CHIR99021, Go6983 and BSA: spheroid formation, fold-expansion, Oct4 pluripotency; type: cell-based, human; conditions: for concentration giving maximal fold change (DOE prediction profiler): iPSCs in suspension, preference stated across WA09 ESCs and Gibco Human Episomal iPSCs
Experimental: DOE was conducted to assess the balance of CHIR99021, Go6983 (a broad-spectrum PKC inhibitor), and BSA in achieving optimum fold-expansion, while also providing support of maintenance of pluripotency. […] Variation in spheroid size resulting from the various culture conditions was assess by phase contrast imaging. […] At day 5 of culture spheroids were dissociated using StemPro Accutase and replated into 2D format for 24 hours. After 24 hours of growth, the cells were fixed, permeabilized and stained with DAPI and for Oct4 expression to determine the pluripotency of the dissociated cells. The number of cells expressing Oct4 was compared to the total number of cells expressing DAPI, enabling an estimation of the percentage of pluripotent stem cells obtained from the spheroids.
Various concentrations of Pinacidil, CHIR99021, Go6893, and BSA, with or without anti-clumping agent, was assessed for achieving fold-expansion of iPSCs in suspension culture. […] Overall, CHIR99021 facilitates spheroid formation and a balance of albumin and CHIR99021 maintains appropriate spheroid size.

[3] = system: Gibco Human Episomal iPSCs; test: Optimal range of CHIR99021 in 100 mL PBS bioreactors: fold-change and viability; type: cell-based
Experimental: The optimal range of CHIR99021 for use in the PSC Medium formulation if included in the formulation for everyday feeds was assessed. Gibco Human Episomal iPSCs were expanded in 100 mL PBS bioreactors in duplicate and cell counts were performed at the end of each passage. […] The sugar source (glucose/galactose) and the concentration of CHIR99021 was varied. The feed schedule was also modified to include every day vs. every-other-day feed schedules. Fold-change upon expansion and viability were assessed for each condition. CHIR99021 concentrations as low as 0.6 μM supported optimal cell expansion on an every-day medium exchange feed schedule (FIG. 11A) and viability on an every-day and every-other-day medium exchange feed schedule (FIG. 11B). […] (FIGS. 11A-11B).

H9 (WA09) ESCs = test: ESC expansion in PSC basal medium with or without CHIR99021 vs mTeSR1; type: cell-based, human; conditions: 10 μM Y-27632 at passaging; Day 5
Experimental: PSC expansion using the PSC media formulations provided herein was compared to expansion in commercially available media. H9 (WA09) ESCs were expanded in PSC basal medium in the absence of CHIR99021, PSC basal medium in the presence of CHIR99021, and in the mTeSR1 media formulation (Stem Cell Technologies). PSCs were passaged using StemPro™ Accutase™ cell dissociation reagent and grown in 6 well non-tissue culture treated plates seeded at 150,000 viable cells/mL in 2 mL of media and agitated at 70 RPM on an orbital shaker platform. […] Cell expansion was assessed via viable cell counts on Day 5. Cultures were fed with 50% medium replacement performed daily.

[4] = system: Gibco Human Episomal iPSCs; test: ROCKi comparison (Chroman I, Pinacidil, RevitaCell vs Y-27632) in PSC medium; type: cell-based; conditions: 1× RevitaCell, 60 μM Pinacidil; for spheroid morphology (size): 50 nM Chroman I, 10 μM Y-27632; for spheroid expansion: Chroman I vs 10 μM Y-27632, CHIR99021 containing PSC medium, 5 days
Experimental: Gibco Human Episomal iPSCs were expanded in non-tissue culture treated 6 well plates on an orbital shaker set to 70 RPM. The cells were passaged from 2D cultures using StemPro Accutase and grown in PSC Medium. Cells were seeded on Day 0 at a concentration of 150,000 cells/mL in a 2 mL volume, with a ROCK inhibitor added to the culture. […] Spheroids were grown over 5 days, with 50% medium replacement performed daily.

[5] = system: Gibco Human Episomal iPSCs; test: ROCK inhibitor pairing with PSC base medium formulation; type: cell-based; conditions: ROCKi used at time of passaging
Experimental: Following 5-day growth with 50% medium exchange daily and constant agitation on an orbital shake platform, fold-change upon expansion was assessed.

[6] = system: Gibco Human Episomal iPSCs; test: Spheroid growth and Oct4 pluripotency by seeding supplement (RevitaCell, Y-27632, Cellartis Supplement 3); type: cell-based
Experimental: PSC fold-expansion and pluripotency maintenance was compared for spheroid cultures seeded with a ROCK inhibitor or with the Cellartis Supplement 3 of the commercially available Cellartis Def-CS 3D medium system and grown in the complete PSC medium provided herein. Gibco Human Episomal iPSCs were expanded in 24-well non tissue culture treated plates at 120 RPM on an orbital shaker platform in the complete PSC medium to determine whether the type of ROCKi or Supplement selected for use affects the overall spheroid growth. […] Overall spheroid growth and expansion was assessed after the cells had grown for 5 days in the 24 well plate (FIG. 15A). The pluripotency of the spheroids was also assessed after the cells had grown for 5 days in the 24 well plate (FIG. 15B). To assess pluripotency, spheroids were dissociated using StemPro Accutase and replated into 2D format for 24 hours. After 24 hours of growth, the cells were fixed, permeabilized and stained with DAPI and for Oct4 expression to determine the pluripotency of the dissociated cells. The number of cells expressing Oct4 was compared to the total number of cells expressing DAPI, enabling an estimation of the percentage of pluripotent stem cells obtained from the spheroids.

## Cc1cnc(-c2cnc(NCCNc3ccc(C#N)cn3)nc2-c2ccc(Cl)cc2Cl)[nH]1 [CHIR99021, 6-[[2-[[4-(2,4-dichlorophenyl)-5-(5-methyl-1H-imidazol-2-yl)-2-pyrimidinyl]amino]ethyl]amino]-3-pyridinecarbonitrile]
[1]; CHIR99021 alone in base PSC medium formulation
  cell nucleation: assisted in cell nucleation
[1]
  fold-expansion of PSCs: significant improvement in fold-expansion
[2]; 3 μM CHIR99021 included on a continual basis
  spheroid morphology Day 5: aberrant differentiation was noted for some conditions
[2]; CHIR99021 at various concentrations only at time of passaging
  fold-expansion: effective at increasing fold-expansion
[2]; CHIR99021 included only at time of passaging (Day 1)
  spheroid morphology Day 5: typical smooth edges and spheroid morphology; also recorded: maintain normal spheroidal morphology
iPSCs
  concentration giving maximal fold change (DOE prediction profiler): intermediate concentration
iPSCs; seeded with 10 μM Y-27632, 3 μM CHIR99021 present or absent
  spheroid formation: aids in spheroid formation
[3]; continuously in medium, every-day medium exchange
  CHIR99021 concentration supporting optimal cell expansion: ≥ 0.6 µM
[3]; every-day and every-other-day medium exchange
  CHIR99021 concentration supporting viability: ≥ 0.6 µM
[3]; fed on every-other-day cadence
  CHIR99021 concentration supporting optimal fold-expansion: up to 1.5 μM
H9 (WA09) ESCs
  fold-expansion compared to PSC basal medium without CHIR99021: enhances fold-expansion
  fold-expansion compared to mTeSR1: significantly enhanced fold-expansion

## COc1ccc2c(c1)C[C@H](C(=O)Nc1ccc(-c3cn[nH]c3)cc1OCCN(C)C)CO2 [Chroman I]
[4]
  spheroid morphology (size): morphologically larger
  spheroid expansion: perform similarly

## COc1ccc2c(c1)c(C1=C(c3c[nH]c4ccccc34)C(=O)NC1=O)cn2CCCN(C)C [Go6983]
iPSCs
  concentration giving maximal fold change (DOE prediction profiler): exclusion of Go6983 and anti-clump agent is preferred

## O=C(NOC[C@H](O)CO)c1ccc(F)c(F)c1Nc1ccc(I)cc1F [PD0325901]
[1]
  fold-expansion of PSCs: detrimental to overall PSC expansion

## CC(N/C(=N\C#N)Nc1ccncc1)C(C)(C)C (stereo not drawn) [Pinacidil]
[4]
  spheroid morphology (size): morphologically smaller
  spheroid expansion: inferior to 10 μM Y-27632

## O=C1c2ccccc2-c2n[nH]c3cccc1c23 [SP00125]
[1]
  fold-expansion of PSCs: detrimental to overall PSC expansion

## O=C(NCc1ccccc1)c1csc(Nc2ccncn2)n1 [Thiazovivin]
[5]
  spheroid size relative to Pinacidil: Larger spheroids

## C[C@@H](N)[C@H]1CC[C@H](C(=O)Nc2ccncc2)CC1 [Y-27632, (R)-(+)-trans-4-(1-aminoethyl)-N-(4-pyridyl)cyclohexanecarboxamide]
[4]
  spheroid morphology (size): morphologically larger
  spheroid expansion: optimal performance
[6]; added on day 1 in complete PSC medium, 24 well, 120 RPM
  spheroid size and morphology on Day 5: most efficient with larger spheroids
[6]; after 5 days, replated 24 hours
  maintenance of pluripotency (Oct4 vs DAPI): maintain high levels of pluripotent stem cells
